Measured values as given in the NIST ThermoML archive (doi:10.1021/je800234h).

Assay: mn = molality of the nth substance listed, in mol/kg
Conditions: Liquid, Vibrating tube method

[Ca+2].[Cl-].[Cl-] [calcium chloride] + CCO
mass density [kg/m3]
Conditions	348.15 K	373.15 K
370 kPa, m1 = 0.09327	–	722.5
390 kPa, m1 = 1.55	–	828.22
420 kPa, m1 = 1.266	–	808.17
680 kPa, m1 = 0.1743	–	728.72
870 kPa, m1 = 0.6899	–	766.95
920 kPa, m1 = 0.9896	–	788.74
940 kPa, m1 = 0.4379	–	749.01
4980 kPa, m1 = 1.266	–	813.49
5040 kPa, m1 = 0.9896	–	794.18
5060 kPa, m1 = 0.1743	–	735.26
5140 kPa, m1 = 1.55	–	834.25
5150 kPa, m1 = 0.6899	–	772.7
5170 kPa, m1 = 0.4379	–	754.76
5180 kPa, m1 = 0.09327	–	729.16
9780 kPa, m1 = 1.266	–	818.85
10150 kPa, m1 = 1.55	–	840.15
10480 kPa, m1 = 0.09327	–	736.08
10480 kPa, m1 = 0.4379	–	761.55
10740 kPa, m1 = 0.1743	–	743.09
10740 kPa, m1 = 0.6899	–	779.75
10740 kPa, m1 = 0.9896	–	801.21
15190 kPa, m1 = 0.4379	–	767.19
15210 kPa, m1 = 0.6899	–	785.01
15250 kPa, m1 = 0.1743	–	748.79
15260 kPa, m1 = 1.266	–	824.65
15290 kPa, m1 = 1.55	–	845.7
15360 kPa, m1 = 0.9896	–	806.48
15720 kPa, m1 = 0.09327	–	742.49
20030 kPa, m1 = 1.266	–	829.44
20140 kPa, m1 = 1.55	–	850.48
20160 kPa, m1 = 0.4379	–	772.75
20280 kPa, m1 = 0.09327	–	747.72
20480 kPa, m1 = 0.1743	776.42	–
20640 kPa, m1 = 0.1743	–	754.98
20640 kPa, m1 = 1.55	872.48	–
20670 kPa, m1 = 0.9896	834.64	–
20750 kPa, m1 = 0.9896	–	812.16
20840 kPa, m1 = 0.4379	796.01	–
20860 kPa, m1 = 0.6899	–	791.16
25040 kPa, m1 = 0.4379	799.76	–
25060 kPa, m1 = 1.266	855.9	–
25130 kPa, m1 = 0.4379	–	777.9
25160 kPa, m1 = 0.09327	774.52	–
25180 kPa, m1 = 0.1743	–	759.68
25190 kPa, m1 = 1.55	876.08	–
25410 kPa, m1 = 1.266	–	834.54
25620 kPa, m1 = 0.1743	781.15	–
25670 kPa, m1 = 0.09327	–	753.48
25740 kPa, m1 = 0.6899	818.02	–
25750 kPa, m1 = 1.55	–	855.45
25840 kPa, m1 = 0.6899	–	796.14
25940 kPa, m1 = 0.9896	839.09	817.13
29980 kPa, m1 = 1.266	–	838.62
30140 kPa, m1 = 1.55	–	858.93
30150 kPa, m1 = 0.6899	–	800.1
30160 kPa, m1 = 0.9896	–	820.83
30240 kPa, m1 = 0.4379	–	782.77
30420 kPa, m1 = 0.1743	785.25	–
30480 kPa, m1 = 0.09327	779.14	–
30610 kPa, m1 = 0.6899	821.98	–
30610 kPa, m1 = 1.266	860.42	–
30730 kPa, m1 = 0.4379	804.51	–
30750 kPa, m1 = 1.55	880.1	–
30860 kPa, m1 = 0.9896	842.93	–
35150 kPa, m1 = 0.4379	807.92	–
35290 kPa, m1 = 1.55	883.06	–
35370 kPa, m1 = 0.9896	846.17	–
35410 kPa, m1 = 0.09327	783.08	–
35480 kPa, m1 = 1.266	864.22	–
35640 kPa, m1 = 0.6899	825.77	–
35860 kPa, m1 = 0.1743	789.53	–
39260 kPa, m1 = 0.09327	785.92	–
39380 kPa, m1 = 0.4379	810.96	–
39490 kPa, m1 = 0.6899	828.45	–
39880 kPa, m1 = 1.55	885.77	–
39960 kPa, m1 = 1.266	867.59	–
39970 kPa, m1 = 0.1743	792.5	–
39970 kPa, m1 = 0.9896	849.2	–
